From PMC9917560, “Design, Synthesis and Antimicrobial Evaluation of New N-(1-Hydroxy-1,3-dihydrobenzo[c][1,2]oxaborol-6-yl)(hetero)aryl-2-carboxamides as Potential Inhibitors of Mycobacterial Leucyl-tRNA Synthetase” (International Journal of Molecular Sciences, 2023)
Converted amounts (≈) assume the structure as drawn. Where two headings read alike, the source gives them in different places.

Legend:
[1] = tested on: Mycobacterium tuberculosis H37Ra ITM-M006710 (ATCC 9431); assay: Antimycobacterial microdilution (resazurin) vs Mtb H37Ra; assay type: cell-based
[2] = tested on: Candida albicans CCM 8320 (ATCC 24433); assay: Antifungal microdilution broth (EUCAST); assay type: cell-based; settings: Candida albicans, read-out: MIC Candida albicans
[3] = tested on: Mycobacterium avium DSM 44,156 (ATCC 25291); assay: Antimycobacterial microdilution (resazurin) vs M. avium; assay type: cell-based; settings: Mycobacterium avium
[4] = tested on: Escherichia coli CCM 3954 (ATCC 25922); assay: Antibacterial microdilution broth (EUCAST); assay type: cell-based; settings: for MIC: Escherichia coli, read-out: MIC Escherichia coli
[5] = tested on: Mycobacterium tuberculosis H37Rv CNCTC My 331/88 (ATCC 27294); assay: Microplate Alamar Blue assay vs Mtb H37Rv; assay type: cell-based; settings: Mycobacterium tuberculosis
[6] = tested on: Mycolicibacterium smegmatis DSM 43,465 (ATCC 607); assay: Antimycobacterial microdilution (resazurin) vs M. smegmatis; assay type: cell-based; settings: Middlebrook 7H9, resazurin, read-out: MIC M. smeg.
[7] = tested on: Trichophyton interdigitale CCM 8377 (ATCC 9533); assay: Antifungal microdilution broth (EUCAST); assay type: cell-based; settings: Trichophyton interdigitale, read-out: MIC Trichophyton interdigitale
[8] = tested on: Acinetobacter baumannii DSM 30007 (ATCC 19606); assay: Antibacterial microdilution broth (EUCAST); assay type: cell-based; settings: read-out: MIC Acinetobacter baumannii
[9] = tested on: Aspergillus fumigatus ATCC 204305; assay: Antifungal microdilution broth (EUCAST); assay type: cell-based; settings: Aspergillus fumigatus, ATCC204305, read-out: MIC Aspergillus fumigatus
[10] = tested on: Aspergillus flavus CCM 8363; assay: Antifungal microdilution broth (EUCAST); assay type: cell-based; settings: Aspergillus flavus, CCM8363, read-out: MIC Aspergillus flavus
HepG2 cell line = assay: Cytotoxicity screening, CellTiter 96 assay; settings: for IC50: Homo sapiens, HepG2, 24 h, read-out: IC50 HepG2
[11] = tested on: Candida tropicalis CCM 8264 (ATCC 750); assay: Antifungal microdilution broth (EUCAST); assay type: cell-based; settings: read-out: MIC Candida tropicalis
[12] = tested on: Candida krusei CCM 8271 (ATCC 6258); assay: Antifungal microdilution broth (EUCAST); assay type: cell-based; settings: Pichia kudriavzevii, read-out: MIC Candida krusei
[13] = tested on: Staphylococcus epidermidis CCM 4418 (ATCC 12228); assay: Antibacterial microdilution broth (EUCAST); assay type: cell-based; settings: read-out: MIC Staphylococcus epidermidis
[14] = tested on: Lichtheimia corymbifera CCM 8077; assay: Antifungal microdilution broth (EUCAST); assay type: cell-based; settings: Lichtheimia corymbifera, CCM8077, read-out: MIC Lichtheimia corymbifera
[15] = tested on: Mycobacterium kansasii DSM 44,162 (ATCC 12478); assay: Antimycobacterial microdilution (resazurin) vs M. kansasii; assay type: cell-based; settings: read-out: MIC M. kansasii
[16] = tested on: methicillin-resistant Staphylococcus aureus subsp. aureus (MRSA) CCM 4750 (ATCC 43300); assay: microbe, parasite or virus in culture; assay type: cell-based; settings: read-out: MIC Methicillin-resistant Staphylococcus aureus subsp. aureus
[17] = tested on: Enterococcus faecalis CCM 4224 (ATCC 29212); assay: Antibacterial microdilution broth (EUCAST); assay type: cell-based; settings: read-out: MIC Enterococcus faecalis
[18] = tested on: Candida parapsilosis CCM 8260 (ATCC 22019); assay: Antifungal microdilution broth (EUCAST); assay type: cell-based; settings: Lodderomyces parapsilosis, read-out: MIC Candida parapsilosis
[19] = tested on: Staphylococcus aureus subsp. aureus CCM 4223 (ATCC 29213); assay: Antibacterial microdilution broth (EUCAST); assay type: cell-based; settings: read-out: MIC Staphylococcus aureus subsp. aureus
[20] = tested on: Mycolicibacterium aurum DSM 43,999 (ATCC 23366); assay: Antimycobacterial microdilution (resazurin) vs M. aurum; assay type: cell-based; settings: Middlebrook 7H9, resazurin, read-out: MIC M. aurum
[21] = tested on: Klebsiella pneumoniae CCM 4415 (ATCC 10031); assay: Antibacterial microdilution broth (EUCAST); assay type: cell-based; settings: for MIC: Klebsiella pneumoniae, read-out: MIC Klebsiella pneumoniae
[22] = tested on: Pseudomonas aeruginosa CCM 3955 (ATCC 27853); assay: Antibacterial microdilution broth (EUCAST); assay type: cell-based; settings: read-out: MIC Pseudomonas aeruginosa
[23] = Middlebrook 7H9, resazurin, recalculated from µg/mL, read-out: MIC Mtb H37Ra
[24] = Middlebrook 7H9, resazurin, read-out: MIC M. avium
[25] = pH 6.6, MABA, Middlebrook 7H9 pH 6.6, recalculated from µg/mL, read-out: MIC Mtb H37Rv

In the case of Cc1nccnc1C(=O)Nc1ccc2c(c1)B(O)OC2 [Compound 3, N-(1-hydroxy-1,3-dihydrobenzo[c][1,2]oxaborol-6-yl)-3-methylpyrazine-2-carboxamide], the MIC ([1]; read-out: MIC Mtb H37Ra, Middlebrook 7H9, resazurin, recalculated from µg/mL) is reported as > 1850 µM, the MIC ([2]; 24h incubation) is reported as > 500 µM and the MIC ([2]; 48h incubation) is reported as > 500 µM. For the same compound, the MIC ([3]; read-out: MIC M. avium, Middlebrook 7H9, resazurin) was > 1850 µM, the MIC ([4]; 24h incubation) was > 500 µM and the MIC ([4]; 48h incubation) was > 500 µM. The MIC ([5]; pH 6.6, read-out: MIC Mtb H37Rv, MABA, Middlebrook 7H9 pH 6.6, recalculated from µg/mL) was 92.9 µM (≈ 25 µg/mL), the MIC [6] was 14.5 µM (≈ 3.91 µg/mL) and the MIC ([7]; 72h incubation) was > 500 µM. For the same compound, the MIC ([7]; 120h incubation) was > 500 µM, the MIC ([8]; 24h incubation) was > 500 µM and the MIC ([8]; 48h incubation) was > 500 µM. For the same compound, the MIC ([9]; 24h incubation) was > 500 µM, the MIC ([9]; 48h incubation) was > 500 µM and the MIC ([10]; 24h incubation) was > 500 µM. For the same compound, the MIC ([10]; 48h incubation) was > 500 µM, the IC50 (HepG2 cell line) was > 500 µM and the “toxicity to HepG2 up to highest tested concentration” value (HepG2 cell line; tested up to 500 µM (2, 3), 250 µM (12, 17), 100 µM (6, 7, 11) because of solubility) was “non-toxic”. For the same compound, the MIC ([11]; 24h incubation) was > 500 µM, the MIC ([11]; 48h incubation) was > 500 µM and the MIC ([12]; 24h incubation) was > 500 µM. The MIC ([12]; 48h incubation) was > 500 µM, the MIC ([13]; 24h incubation) was > 500 µM and the MIC ([13]; 48h incubation) was > 500 µM. For the same compound, the MIC ([14]; 24h incubation) was > 500 µM, the MIC ([14]; 48h incubation) was > 500 µM and the MIC ([15]; Middlebrook 7H9, resazurin) was 58.1 µM (≈ 15.6 µg/mL). The MIC ([16]; 24 h) was > 500 µM, the MIC ([16]; 48 h) was > 500 µM and the MIC ([17]; 24h incubation) was > 500 µM. For the same compound, the MIC ([17]; 48h incubation) was > 500 µM, the MIC ([18]; 24h incubation) was > 500 µM and the MIC ([18]; 48h incubation) was > 500 µM. For the same compound, the melting point was 262.9 to 264 °C, the MIC ([19]; 24h incubation) was > 500 µM and the MIC ([19]; 48h incubation) was > 500 µM. The MIC [20] was 14.5 µM (≈ 3.91 µg/mL), the MIC ([21]; 24h incubation) was > 500 µM and the MIC ([21]; 48h incubation) was > 500 µM. For the same compound, the MIC ([22]; 24h incubation) was > 500 µM and the MIC ([22]; 48h incubation) was > 500 µM.

With O=C(Nc1ccc2c(c1)B(O)OC2)c1cscn1 [Compound 16, N-(1-hydroxy-1,3-dihydrobenzo[c][1,2]oxaborol-6-yl)thiazole-4-carboxamide] the MIC [1, 23] was 120 µM (≈ 31.3 µg/mL), the MIC ([2]; 24h incubation) was > 500 µM and the MIC ([2]; 48h incubation) was > 500 µM. For the same compound, the MIC [3, 24] was 240 µM (≈ 62.5 µg/mL), the “MIC Escherichia coli” value ([4]; 48h incubation) was “no inhibition” and the MIC ([4]; 24h incubation) was 500 µM (≈ 130 µg/mL). The MIC ([4]; 48h incubation) was > 500 µM, the MIC [5, 25] was 96.1 µM (≈ 25 µg/mL) and the MIC [6] was 30 µM (≈ 7.81 µg/mL). For the same compound, the MIC ([7]; 72h incubation) was > 500 µM, the MIC ([7]; 120h incubation) was > 500 µM and the MIC ([8]; 24h incubation) was > 500 µM. For the same compound, the MIC ([8]; 48h incubation) was > 500 µM, the MIC ([9]; 24h incubation) was > 500 µM and the MIC ([9]; 48h incubation) was > 500 µM. For the same compound, the MIC ([10]; 24h incubation) was > 500 µM, the MIC ([10]; 48h incubation) was > 500 µM and the IC50 (HepG2 cell line) was > 1000 µM. The MIC ([11]; 24h incubation) was > 500 µM, the MIC ([11]; 48h incubation) was > 500 µM and the MIC ([12]; 24h incubation) was > 500 µM. The MIC ([12]; 48h incubation) was > 500 µM, the MIC ([13]; 24h incubation) was 500 µM (≈ 130 µg/mL) and the MIC ([13]; 48h incubation) was > 500 µM. The MIC ([14]; 24h incubation) was > 500 µM, the MIC ([14]; 48h incubation) was > 500 µM and the MIC ([15]; Middlebrook 7H9, resazurin) was 30 µM (≈ 7.81 µg/mL). The MIC ([16]; 24 h) was 250 µM (≈ 65 µg/mL), the MIC ([16]; 48 h) was 500 µM (≈ 130 µg/mL) and the MIC ([17]; 24h incubation) was > 500 µM. The MIC ([17]; 48h incubation) was > 500 µM, the MIC ([18]; 24h incubation) was > 500 µM and the MIC ([18]; 48h incubation) was > 500 µM. It also gave a melting point of 225.7 to 227.9 °C, an MIC ([19]; 24h incubation) of 125 µM (≈ 32.5 µg/mL) and an MIC ([19]; 48h incubation) of 125 µM (≈ 32.5 µg/mL). The MIC [20] was 15 µM (≈ 3.91 µg/mL), the “MIC Klebsiella pneumoniae” value ([21]; 48h incubation) was “no inhibition” and the MIC ([21]; 24h incubation) was 500 µM (≈ 130 µg/mL). For the same compound, the MIC ([21]; 48h incubation) was > 500 µM, the MIC ([22]; 24h incubation) was > 500 µM and the MIC ([22]; 48h incubation) was > 500 µM.

In the case of O=C(Nc1ccc2c(c1)B(O)OC2)c1ncc[nH]c1=O [Compound 8, N-(1-hydroxy-1,3-dihydrobenzo[c][1,2]oxaborol-6-yl)-3-oxo-3,4-dihydropyrazine-2-carboxamide], the MIC [1, 23] is reported as 231 µM (≈ 62.5 µg/mL), the MIC ([2]; 24h incubation) is reported as > 500 µM and the MIC ([2]; 48h incubation) is reported as > 500 µM. The MIC [3, 24] was 57.6 µM (≈ 15.6 µg/mL), the MIC ([4]; 24h incubation) was > 500 µM and the MIC ([4]; 48h incubation) was > 500 µM. The MIC [5, 25] was 92.2 µM (≈ 25 µg/mL), the MIC [6] was 28.8 µM (≈ 7.81 µg/mL) and the MIC ([7]; 72h incubation) was > 500 µM. For the same compound, the MIC ([7]; 120h incubation) was > 500 µM, the MIC ([8]; 24h incubation) was > 500 µM and the MIC ([8]; 48h incubation) was > 500 µM. The MIC ([9]; 24h incubation) was > 500 µM, the MIC ([9]; 48h incubation) was > 500 µM and the MIC ([10]; 24h incubation) was > 500 µM. For the same compound, the MIC ([10]; 48h incubation) was > 500 µM, the IC50 (HepG2 cell line) was > 1000 µM and the MIC ([11]; 24h incubation) was > 500 µM. For the same compound, the MIC ([11]; 48h incubation) was > 500 µM, the MIC ([12]; 24h incubation) was > 500 µM and the MIC ([12]; 48h incubation) was > 500 µM. The MIC ([13]; 24h incubation) was 500 µM (≈ 136 µg/mL), the MIC ([13]; 48h incubation) was 500 µM (≈ 136 µg/mL) and the MIC ([14]; 24h incubation) was > 500 µM. The MIC ([14]; 48h incubation) was > 500 µM, the MIC [15] was 231 µM (≈ 62.5 µg/mL) and the MIC ([16]; 24 h) was 125 µM (≈ 33.9 µg/mL). The MIC ([16]; 48 h) was 125 µM (≈ 33.9 µg/mL), the MIC ([17]; 24h incubation) was > 500 µM and the MIC ([17]; 48h incubation) was > 500 µM. For the same compound, the MIC ([18]; 24h incubation) was > 500 µM, the MIC ([18]; 48h incubation) was > 500 µM and the melting point was 326.4 to 328.3 °C (dec.). The MIC ([19]; 24 h) was 125 µM (≈ 33.9 µg/mL), the MIC ([19]; 48 h) was 125 µM (≈ 33.9 µg/mL) and the MIC [20] was 28.8 µM (≈ 7.81 µg/mL). For the same compound, the MIC ([21]; 24h incubation) was > 500 µM, the MIC ([21]; 48h incubation) was > 500 µM and the MIC ([22]; 24h incubation) was > 500 µM. For the same compound, the MIC ([22]; 48h incubation) was > 500 µM.
